TGI and GI50 data for 14 compounds are collected here from PubChem BioAssay (NCI).

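Five concentrations, 48 hours, 96-well plates. Here, GI50 denotes the concentration required for 50% inhibition of growth. At the TGI there is no net growth.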 A value given as a limit tells only on which side of the number the result lay.

Some test systems named below: SF-268 CNS; HOP-62 NSCLC; UACC-257 melanoma; HCT-15 colon; UACC-62 melanoma; RPMI-8226 leukemia; PC-3 prostate; SF-295 CNS; K-562 leukemia; A498 renal.
Holding throughout (assay): growth of human tumour cells (NCI), 48 h

As for `COc1cc(OC)c(OC)cc1/C=C/c1ccc2ccccc2n1`, the TGI in the assay on SF-268 CNS, in the assay on HOP-62 NSCLC, in the assay on UACC-257 melanoma, in the assay on HCT-15 colon, in the assay on UACC-62 melanoma and in the assay with RPMI-8226 leukemia was above 10 µM each time. The TGI with PC-3 prostate, with SF-295 CNS and in the assay on K-562 leukemia was above 10 µM each time.

Take `O=C1/C(=C/c2ccc(C(=O)O)cc2)CNC/C1=C\c1ccc(C(=O)O)cc1`: the TGI in the assay with A498 renal, in the assay on SF-268 CNS, in the assay on HOP-62 NSCLC, with UACC-257 melanoma, with HCT-15 colon and in the assay with UACC-62 melanoma was above 100 µM in each case. The TGI with RPMI-8226 leukemia, with SF-295 CNS and in the assay on K-562 leukemia was above 100 µM in each case.

Take `CC(=O)OCc1cc[c]([Hg][Cl])o1`: the GI50 is 8.78 µM with SF-268 CNS; 13.8 µM with HOP-62 NSCLC; 13.5 µM in the assay with UACC-257 melanoma; 1.62 µM in the assay on HCT-15 colon; 2.59 µM with UACC-62 melanoma; 4.69 µM in the assay with RPMI-8226 leukemia. The GI50 in the assay with PC-3 prostate is 11 µM; in the assay on SF-295 CNS it was 14.3 µM; in the assay with K-562 leukemia it was 0.991 µM. Also, the TGI in the assay with SF-268 CNS is 21.8 µM; in the assay with HOP-62 NSCLC, 28.6 µM; in the assay with UACC-257 melanoma, 26.8 µM; in the assay on HCT-15 colon it was 3.66 µM; with UACC-62 melanoma it was 11.3 µM; in the assay with RPMI-8226 leukemia, 34.9 µM. Further, the TGI was found to be 24.2 µM in the assay on PC-3 prostate, 28.8 µM in the assay on SF-295 CNS and 10.3 µM in the assay with K-562 leukemia.

For the compound `CCCCCCCC(=O)[O-].N.N.N.N.N.[Co+3].[O-][Cl+3]([O-])([O-])[O-]`, the GI50 with A498 renal, in the assay on SF-268 CNS, with HOP-62 NSCLC, in the assay with UACC-257 melanoma, in the assay on HCT-15 colon and in the assay on UACC-62 melanoma was above 100 µM throughout. Besides, the GI50 in the assay on RPMI-8226 leukemia, in the assay with SF-295 CNS and in the assay with K-562 leukemia was above 100 µM in each case. In addition, the TGI in the assay with A498 renal, in the assay with SF-268 CNS, in the assay on HOP-62 NSCLC, with UACC-257 melanoma, in the assay with HCT-15 colon and in the assay with UACC-62 melanoma was above 100 µM in each case. In addition, the TGI in the assay on RPMI-8226 leukemia, with SF-295 CNS and in the assay with K-562 leukemia was above 100 µM each time.

For `COc1ccc(C2[C@@H](Cl)C(=O)N2c2ccc(OC)cc2)cc1` (stereo partly specified), the TGI with A498 renal, in the assay with SF-268 CNS, in the assay on UACC-257 melanoma, in the assay on UACC-62 melanoma, in the assay on RPMI-8226 leukemia and in the assay with SF-295 CNS was above 100 µM each time. The same compound had a TGI in the assay with K-562 leukemia above 100 µM.

`CC1=NN(c2ccccc2)C(=O)C1N=Nc1ccc(Br)cc1C` (stereo unspecified): the TGI in the assay with A498 renal, in the assay with SF-268 CNS, with HOP-62 NSCLC, in the assay with UACC-257 melanoma, with HCT-15 colon and with UACC-62 melanoma was above 100 µM in each case. The TGI in the assay on RPMI-8226 leukemia, in the assay with SF-295 CNS and with K-562 leukemia was above 100 µM throughout.

As for `O=S(=O)(O)c1ccc([Se][Se]c2ccc(S(=O)(=O)O)cc2)cc1`, the TGI with A498 renal, with SF-268 CNS, in the assay on HOP-62 NSCLC, in the assay on UACC-257 melanoma, in the assay on HCT-15 colon and in the assay on UACC-62 melanoma was above 100 µM in each case. Also, the TGI in the assay with RPMI-8226 leukemia, in the assay on SF-295 CNS and in the assay on K-562 leukemia was above 100 µM each time.

As to `Clc1cc2ns[s+]c2cc1Cl`, the TGI is above 100 µM in the assay with A498 renal; above 100 µM in the assay on SF-268 CNS; above 81.7 µM with HOP-62 NSCLC; above 100 µM in the assay on UACC-257 melanoma; above 100 µM in the assay with HCT-15 colon; above 100 µM with UACC-62 melanoma. In addition, the TGI with RPMI-8226 leukemia, with SF-295 CNS and in the assay with K-562 leukemia was above 100 µM throughout.

Regarding `Oc1ccccc1-c1cnnc(-c2ccccc2O)c1`, the TGI in the assay on SF-268 CNS was above 100 µM; in the assay with UACC-257 melanoma, 53.5 µM; in the assay with UACC-62 melanoma it was 34 µM; in the assay on RPMI-8226 leukemia it was 51.2 µM; with K-562 leukemia, above 100 µM.

For `NC1=NN(c2ccccc2)C(=O)C1/C(=N\NC(=O)c1cc2ccccc2cc1O)C(=O)Nc1ccc(Cl)c(Cl)c1` (stereo unspecified), the TGI was above 100 µM in the assay on A498 renal; above 100 µM in the assay on SF-268 CNS; above 100 µM with HOP-62 NSCLC; 84 µM with UACC-257 melanoma; above 100 µM in the assay on HCT-15 colon; 44.1 µM with UACC-62 melanoma. Besides, the TGI in the assay with RPMI-8226 leukemia, in the assay on SF-295 CNS and with K-562 leukemia was above 100 µM in each case.

On to `Cc1cc(NCCCCCCCCNc2cc(C)nc3cc(N(C)C)ccc23)c2ccc(N(C)C)cc2n1`, for which the TGI with A498 renal is 42.6 µM; with SF-268 CNS, 26.9 µM; with HOP-62 NSCLC it was 29 µM; with UACC-257 melanoma, 23.1 µM; with HCT-15 colon, above 100 µM; in the assay with RPMI-8226 leukemia, 17.2 µM. The TGI in the assay with SF-295 CNS came out at 30.2 µM; with K-562 leukemia, 28.5 µM.

Consider `COc1ccc2c(c1)C(=O)CC(C(N)=O)C2` (stereo unspecified), for which the TGI in the assay with SF-268 CNS, in the assay on HOP-62 NSCLC, with UACC-257 melanoma, in the assay on HCT-15 colon, with UACC-62 melanoma and in the assay on RPMI-8226 leukemia was above 100 µM in each case. In addition, the TGI in the assay with PC-3 prostate, with SF-295 CNS and in the assay on K-562 leukemia was above 100 µM throughout.

Consider `CCCCCCCCCCCCCC(=O)OCC1OC(=O)C(O)C1O` (stereo unspecified), for which the TGI in the assay with A498 renal, with SF-268 CNS, in the assay on HOP-62 NSCLC, in the assay on UACC-257 melanoma, in the assay on UACC-62 melanoma and with RPMI-8226 leukemia was above 100 µM each time. For the same compound, the TGI in the assay on SF-295 CNS and in the assay on K-562 leukemia was above 100 µM each time.

As to `O=C(Nc1ccn(C2CCC(COC(c3ccccc3)(c3ccccc3)c3ccccc3)O2)c(=O)n1)c1ccccc1` (stereo unspecified), the TGI in the assay on SF-268 CNS amounted to 17.4 µM; in the assay on HOP-62 NSCLC, 16.3 µM; in the assay with UACC-257 melanoma, 17.9 µM; in the assay with HCT-15 colon, 11.2 µM; in the assay on UACC-62 melanoma, 16.7 µM; in the assay with RPMI-8226 leukemia it was 5.21 µM. For the same compound, the values for the TGI in the assay on PC-3 prostate, in the assay with SF-295 CNS and in the assay on K-562 leukemia were 5.71 µM, 5.9 µM and 7.97 µM, respectively.
